Experimental data: patent publication US8435980B2 (AbbVie Inc., priority 2009, dated 2013)
pKi: −log10 of the molar value.

Each molecule was assayed against T1, Cdc7 (BEV coexpressed huCDC7/DBF4) (Homo sapiens, UniProt O00311) (assay: Cdc7 enzyme inhibition assay ([33P]ATP, biotinylated peptide substrate, FlashPlate)). Settings: Table 3; enzyme inhibition data (Ki).
T1 construct: made in house; host or cells: BEV (baculovirus expression vector) co-expression; insect cells are implied but no cell line is named
Format: biochemical
Procedure: Cdc7 (BEV coexpressed huCDC7/DBF4) is prepared internally. Cdc7 assays are conducted as follows with final concentrations as listed. […] Reactions are quenched after 1 hr by the addition of 90 μL stop buffer (50 mM EDTA, 2M NaCl). […] (Ki) for exemplary compounds.

T1 sequence (O00311 whole entry): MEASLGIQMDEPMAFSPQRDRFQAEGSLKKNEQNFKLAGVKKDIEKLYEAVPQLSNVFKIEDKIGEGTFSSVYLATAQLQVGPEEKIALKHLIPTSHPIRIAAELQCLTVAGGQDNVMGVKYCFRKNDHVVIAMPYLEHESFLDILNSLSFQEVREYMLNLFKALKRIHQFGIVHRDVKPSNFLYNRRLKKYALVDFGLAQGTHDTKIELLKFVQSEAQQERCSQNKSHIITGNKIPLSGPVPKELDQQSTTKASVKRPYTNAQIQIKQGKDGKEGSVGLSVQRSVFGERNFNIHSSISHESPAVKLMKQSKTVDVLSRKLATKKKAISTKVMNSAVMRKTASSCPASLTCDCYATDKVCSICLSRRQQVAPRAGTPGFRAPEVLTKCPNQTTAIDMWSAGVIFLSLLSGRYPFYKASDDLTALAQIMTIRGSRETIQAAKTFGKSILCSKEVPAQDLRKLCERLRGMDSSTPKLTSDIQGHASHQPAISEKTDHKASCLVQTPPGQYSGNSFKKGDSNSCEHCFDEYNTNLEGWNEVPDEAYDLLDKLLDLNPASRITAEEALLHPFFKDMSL
T1 sequence (Q9UBU7 whole entry partner): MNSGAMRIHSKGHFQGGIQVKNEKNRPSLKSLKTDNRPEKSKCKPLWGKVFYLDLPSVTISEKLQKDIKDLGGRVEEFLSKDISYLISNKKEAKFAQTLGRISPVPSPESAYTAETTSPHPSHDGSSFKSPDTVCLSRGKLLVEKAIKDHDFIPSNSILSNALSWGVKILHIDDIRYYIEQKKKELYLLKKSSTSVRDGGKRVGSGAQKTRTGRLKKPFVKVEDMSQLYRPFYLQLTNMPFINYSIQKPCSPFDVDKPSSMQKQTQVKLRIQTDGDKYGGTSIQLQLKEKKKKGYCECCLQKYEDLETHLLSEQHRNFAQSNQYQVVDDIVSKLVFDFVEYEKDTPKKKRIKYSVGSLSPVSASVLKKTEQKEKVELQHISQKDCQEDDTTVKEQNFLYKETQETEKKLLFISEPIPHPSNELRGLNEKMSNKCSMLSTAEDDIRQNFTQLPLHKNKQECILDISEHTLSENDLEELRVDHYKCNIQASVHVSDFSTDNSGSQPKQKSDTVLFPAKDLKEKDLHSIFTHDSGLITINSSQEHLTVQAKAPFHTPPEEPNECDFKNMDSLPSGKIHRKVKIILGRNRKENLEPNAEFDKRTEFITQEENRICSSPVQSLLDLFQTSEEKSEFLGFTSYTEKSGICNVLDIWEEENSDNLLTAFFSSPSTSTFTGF

Row | Compound | pKi
1 | O=S(=O)(NC1CCCC(Nc2cc(-c3c[nH]c4ncccc34)cc(Cl)n2)C1)c1cccs1 (stereo not drawn) [Example 83, N-(3-{[6-chloro-4-(1H-pyrrolo[2,3-b]pyridin-3-yl)pyridin-2-yl]amino}cyclohexyl)thiophene-2-sulfonamide] | > 8.00
2 | CCCCC(=O)Nc1cc(-c2c[nH]c3ncccc23)cc(Cl)n1 [Example 84, N-[6-chloro-4-(1H-pyrrolo[2,3-b]pyridin-3-yl)pyridin-2-yl]pentanamide] | > 8.00
3 | O=C(Nc1cc(-c2c[nH]c3ncccc23)cc(Cl)n1)C1CCCCC1 [Example 85, N-[6-chloro-4-(1H-pyrrolo[2,3-b]pyridin-3-yl)pyridin-2-yl]cyclohexanecarboxamide] | > 8.00
4 | O=C(Nc1cc(-c2c[nH]c3ncccc23)cc(Cl)n1)c1ccccc1 [Example 86, N-[6-chloro-4-(1H-pyrrolo[2,3-b]pyridin-3-yl)pyridin-2-yl]benzamide] | > 8.00
5 | Clc1cc(-c2c[nH]c3ncccc23)cc(NC2CCC2)n1 [Example 92, 6-chloro-N-cyclobutyl-4-(1H-pyrrolo[2,3-b]pyridin-3-yl)pyridin-2-amine] | > 8.00
6 | CN(C)[C@H]1CC[C@H](Nc2cc(-c3c[nH]c4ncccc34)cc(Cl)n2)CC1 [Example 93, trans-N′-[6-chloro-4-(1H-pyrrolo[2,3-b]pyridin-3-yl)pyridin-2-yl]-N,N-dimethylcyclohexane-1,4-diamine] | > 8.00
7 | CCN1CCCC(CNc2cc(-c3c[nH]c4ncccc34)cc(Cl)n2)C1 (stereo not drawn) [Example 94, 6-chloro-N-[(1-ethylpiperidin-3-yl)methyl]-4-(1H-pyrrolo[2,3-b]pyridin-3-yl)pyridin-2-amine] | > 8.00
8 | Clc1cc(-c2c[nH]c3ncccc23)cc(NCC2CCCN(C3CCC3)C2)n1 (stereo not drawn) [Example 95, 6-chloro-N-[(1-cyclobutylpiperidin-3-yl)methyl]-4-(1H-pyrrolo[2,3-b]pyridin-3-yl)pyridin-2-amine] | > 8.00
9 | CS(=O)(=O)N1CCCC(CNc2cc(-c3c[nH]c4ncccc34)cc(Cl)n2)C1 (stereo not drawn) [Example 97, 6-chloro-N-((1-(methylsulfonyl)piperidin-3-yl)methyl)-4-(1H-pyrrolo[2,3-b]pyridin-3-yl)pyridin-2-amine] | > 8.00
10 | CCNC(=O)N1CCCC(CNc2cc(-c3c[nH]c4ncccc34)cc(Cl)n2)C1 (stereo not drawn) [Example 98, 3-((6-chloro-4-(1H-pyrrolo[2,3-b]pyridin-3-yl)pyridin-2-ylamino)methyl)-N-ethylpiperidine-1-carboxamide] | > 8.00

Next, values leading:

Row | pKi | Compound
11 | 7.00 to 8.00 | CC(C)(CNc1cc(-c2c[nH]c3ncccc23)cc(Cl)n1)CNS(=O)(=O)c1cccnc1 [Example 81, N-(3-{[6-chloro-4-(1H-pyrrolo[2,3-b]pyridin-3-yl)pyridin-2-yl]amino}-2,2-dimethylpropyl)pyridine-3-sulfonamide]
12 | > 8.00 | CC(C)(CNc1cc(-c2c[nH]c3ncccc23)cc(Cl)n1)CNS(=O)(=O)C1CC1 [Example 82, N-(3-{[6-chloro-4-(1H-pyrrolo[2,3-b]pyridin-3-yl)pyridin-2-yl]amino}-2,2-dimethylpropyl)cyclopropanesulfonamide]
13 | > 8.00 | O=S(=O)(NCCNc1cc(-c2c[nH]c3ncccc23)cc(Cl)n1)C1CC1 [Example 89, N-(2-{[6-chloro-4-(1H-pyrrolo[2,3-b]pyridin-3-yl)pyridin-2-yl]amino}ethyl)cyclopropanesulfonamide]
14 | > 8.00 | O=S(=O)(NCCNc1cc(-c2c[nH]c3ncccc23)cc(Cl)n1)c1cccnc1 [Example 90, N-(2-{[6-chloro-4-(1H-pyrrolo[2,3-b]pyridin-3-yl)pyridin-2-yl]amino}ethyl)pyridine-3-sulfonamide]
15 | > 8.00 | Clc1cc(-c2c[nH]c3ncccc23)cc(NCC2CCCN(Cc3cccnc3)C2)n1 (stereo not drawn) [Example 96, 6-chloro-N-{[1-(pyridin-3-ylmethyl)piperidin-3-yl]methyl}-4-(1H-pyrrolo[2,3-b]pyridin-3-yl)pyridin-2-amine]
